Results: patent publication US8530470B2, “Chromenone derivatives” (Astrazeneca AB, priority 2011, dated 2013)
Like-named read-outs stand apart in the source and are kept apart here.

Assays:
[1] = test system: phospho AKT (ser473) in MDA-MB-468 cells; experiment: Detection of phospho AKT (ser473) in MDA-MB-468 cells; assay type: cell-based; conditions: Homo sapiens, Test (b), 2 hours incubation, approximate value, read-out: IC50 versus cellular phospho AKT (ser473) in MDA-MB-468 cells
Method: (b) Protocol for Detection of Phospho AKT (ser473) in MDA-MB-468 Cells
MDA-MB-468 cells (human breast adenocarcinoma ATCC HTB 132) are seeded into Greiner 384 well black flat-bottomed plates by automated cell culture robot (Selec T). Cells can also be maintained manually and seeded into plates using multidrop or Wellmate. Cells seeded at 1500 cell/well in 40 μl of DMEN containing 10% FCS and 1% glutamine. Cell plates are incubated for 18 hours in a 37° C. incubator.
Compounds are dosed onto cells using an Echo acoustic dispenser, which dispenses nl quantities of compound or DMSO. Compounds are dosed in a 12 point concentration range from 30 μM top dose, 28 compounds are dosed on one plate. There are 17 DMSO only positive control wells per plate, and 16 negative control well which have been dosed with a concentration of reference compound that will knockout the pAKT signal.
Plates are incubated at 37° C. for 2 hours, cells are the fixed by the addition of 10 μl of a 3.7% Formaldehyde solution in a fume cupboard using a Wellmate.
After 30 min to allow for fixation, the fixative and media are removed and the plates washed with Proclin PBS/A using Tecan PW384 plate washer in a fume cupboard. Wells are blocked and permeabilised with the addition of 40 μl of PBS containing 0.5% Tween20 and 1% marvel using a Wellmate and incubated for 60 min at room temperature.
Permeabilisation and blocking buffer removed using Tecan PW384 plate washer, then 20 μl primary antibody solution added using a Wellmate. The primary antibody solution is a 1:500 dilution of Rabbit anti-phospho AKT Ser 473 (Cell signalling technologies catalogue number #3787) in PBS/T containing 1% marvel (dried milk powder) and incubated overnight at 4° C.
Plates are washed using a Tecan PW384 plate washer three times with Phosphate Buffered Saline+0.05% (v/v) Polysorbate20 and Proclin300 (Supelco). 20 μl of secondary antibody solution is then added to each well using a Wellmate and incubated for 1 hour at Room Temp. The secondary antibody solution is a 1:1000 dilution of Alexa Fluor 488 anti-Rabbit (Molecular Probes cat no A11008) diluted in Phosphate Buffered Saline+0.05% (v/v) Polysorbate20 containing 1% marvel. Plates are washed three times as before then […] added to each well and plates sealed with black plate sealer.
The plates are read on an Acumen reader as soon as possible. Using this system IC50 values can be generated and quality of plates determined by control wells. Reference compounds are run each time to monitor assay performance.

PI3Kβ = PI3Kβ (Homo sapiens, UniProt P42338); experiment: In vitro enzyme inhibition assay (Kinase Glo), PI3Kβ; assay type: biochemical
Chain of PI3Kβ (P42338 whole entry): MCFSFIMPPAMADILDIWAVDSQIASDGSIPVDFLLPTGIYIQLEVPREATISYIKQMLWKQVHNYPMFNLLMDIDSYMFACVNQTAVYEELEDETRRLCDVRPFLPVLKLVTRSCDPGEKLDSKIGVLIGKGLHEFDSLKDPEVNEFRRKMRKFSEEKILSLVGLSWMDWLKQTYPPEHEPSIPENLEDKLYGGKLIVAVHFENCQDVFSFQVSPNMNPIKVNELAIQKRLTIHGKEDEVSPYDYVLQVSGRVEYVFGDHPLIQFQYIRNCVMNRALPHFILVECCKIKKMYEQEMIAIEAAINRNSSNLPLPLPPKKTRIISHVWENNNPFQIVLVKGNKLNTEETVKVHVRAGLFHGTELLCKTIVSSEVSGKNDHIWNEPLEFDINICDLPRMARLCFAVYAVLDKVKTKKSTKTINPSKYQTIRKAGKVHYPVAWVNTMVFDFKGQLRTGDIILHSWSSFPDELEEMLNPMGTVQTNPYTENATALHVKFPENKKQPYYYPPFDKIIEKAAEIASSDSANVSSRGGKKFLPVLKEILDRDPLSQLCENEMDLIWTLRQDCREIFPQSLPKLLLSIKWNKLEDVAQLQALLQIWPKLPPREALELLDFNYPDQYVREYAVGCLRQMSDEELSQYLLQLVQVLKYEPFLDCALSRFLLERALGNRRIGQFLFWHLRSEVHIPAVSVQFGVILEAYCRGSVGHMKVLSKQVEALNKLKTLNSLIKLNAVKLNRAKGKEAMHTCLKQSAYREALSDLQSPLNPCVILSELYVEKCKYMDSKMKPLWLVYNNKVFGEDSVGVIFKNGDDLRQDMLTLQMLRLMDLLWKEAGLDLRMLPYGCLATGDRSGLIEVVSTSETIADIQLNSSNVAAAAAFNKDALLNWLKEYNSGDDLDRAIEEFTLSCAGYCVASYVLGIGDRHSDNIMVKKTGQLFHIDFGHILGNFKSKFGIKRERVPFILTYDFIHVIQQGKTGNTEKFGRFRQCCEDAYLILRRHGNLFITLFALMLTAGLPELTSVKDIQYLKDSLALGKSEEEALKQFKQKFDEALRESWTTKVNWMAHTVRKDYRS
Chain of PI3Kβ (P27986 whole entry partner): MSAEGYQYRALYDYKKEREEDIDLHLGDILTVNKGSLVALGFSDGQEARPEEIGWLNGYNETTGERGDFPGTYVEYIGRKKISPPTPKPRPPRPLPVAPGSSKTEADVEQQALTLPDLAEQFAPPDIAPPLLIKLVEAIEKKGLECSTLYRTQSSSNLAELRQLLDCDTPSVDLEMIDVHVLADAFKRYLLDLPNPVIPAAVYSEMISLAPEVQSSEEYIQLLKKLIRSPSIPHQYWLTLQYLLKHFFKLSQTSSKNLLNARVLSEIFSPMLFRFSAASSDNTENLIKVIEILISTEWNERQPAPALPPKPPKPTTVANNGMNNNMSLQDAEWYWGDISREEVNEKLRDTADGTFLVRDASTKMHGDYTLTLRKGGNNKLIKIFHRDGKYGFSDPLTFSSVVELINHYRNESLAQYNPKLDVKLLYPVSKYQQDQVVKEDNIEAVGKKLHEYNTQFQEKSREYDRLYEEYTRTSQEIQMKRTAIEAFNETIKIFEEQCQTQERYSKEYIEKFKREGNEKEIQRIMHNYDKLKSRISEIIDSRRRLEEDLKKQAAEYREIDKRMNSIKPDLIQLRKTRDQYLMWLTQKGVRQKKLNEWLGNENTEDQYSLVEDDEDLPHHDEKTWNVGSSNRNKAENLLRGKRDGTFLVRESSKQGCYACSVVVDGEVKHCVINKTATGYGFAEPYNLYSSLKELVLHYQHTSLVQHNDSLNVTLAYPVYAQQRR
Method: (§1) (a) In Vitro Enzyme Inhibition Assay
(§2) The inhibition of PI3Kβ, PI3Kα, PI3Kγ and PI3Kδ was evaluated in a Kinase Glo based enzyme activity assay using human recombinant enzymes. The assay measures depletion of ATP after incubation with enzyme, PIP2 and ATP plus compound. ATP at the end of the reaction is detected by addition of Kinase Glo reagent, in this the Ultra Glo™ luciferase (Promega) uses the ATP as a substrate to catalyze the mono-oxygenation of luciferin and the generation of light. A direct relationship exists between the luminescence measured with the Kinase-Glo Plus Reagent and the amount of ATP remaining in a completed kinase reaction and luminescence is inversely related to kinase activity. Twelve different compound concentrations were tested and raw data from the inhibition of PI3Kβ, PI3Kα, PI3Kγ and PI3Kδ was plotted versus inhibitor concentration.
(§3) Compounds in 100% DMSO were added to assay plates by acoustic dispensing. PI3β was added in a Tris buffer (50 mM Tris pH7.4, 0.05% CHAPS, 2.1 mM DTT, and 10 mM MgCl2) and allowed to preincubate with compound for 20 min prior to addition of substrate solution containing PIP2 and ATP. The enzyme reaction was stopped after 80 min by the addition of Kinase Glo detection solution. […] The final concentration of DMSO, ATP and PIP2 in the assay were, 1%, 8 μM, and 80 μM respectively.
(§4) IC50 values were calculated using a log curve fitting to a non-linear regression package, fitting raw data to inhibitor concentration.

PI3Kδ = PI3Kδ (Homo sapiens, UniProt O00329); experiment: In vitro enzyme inhibition assay (Kinase Glo), PI3Kδ; assay type: biochemical; conditions: Test (a)
Chain of PI3Kδ (O00329 whole entry): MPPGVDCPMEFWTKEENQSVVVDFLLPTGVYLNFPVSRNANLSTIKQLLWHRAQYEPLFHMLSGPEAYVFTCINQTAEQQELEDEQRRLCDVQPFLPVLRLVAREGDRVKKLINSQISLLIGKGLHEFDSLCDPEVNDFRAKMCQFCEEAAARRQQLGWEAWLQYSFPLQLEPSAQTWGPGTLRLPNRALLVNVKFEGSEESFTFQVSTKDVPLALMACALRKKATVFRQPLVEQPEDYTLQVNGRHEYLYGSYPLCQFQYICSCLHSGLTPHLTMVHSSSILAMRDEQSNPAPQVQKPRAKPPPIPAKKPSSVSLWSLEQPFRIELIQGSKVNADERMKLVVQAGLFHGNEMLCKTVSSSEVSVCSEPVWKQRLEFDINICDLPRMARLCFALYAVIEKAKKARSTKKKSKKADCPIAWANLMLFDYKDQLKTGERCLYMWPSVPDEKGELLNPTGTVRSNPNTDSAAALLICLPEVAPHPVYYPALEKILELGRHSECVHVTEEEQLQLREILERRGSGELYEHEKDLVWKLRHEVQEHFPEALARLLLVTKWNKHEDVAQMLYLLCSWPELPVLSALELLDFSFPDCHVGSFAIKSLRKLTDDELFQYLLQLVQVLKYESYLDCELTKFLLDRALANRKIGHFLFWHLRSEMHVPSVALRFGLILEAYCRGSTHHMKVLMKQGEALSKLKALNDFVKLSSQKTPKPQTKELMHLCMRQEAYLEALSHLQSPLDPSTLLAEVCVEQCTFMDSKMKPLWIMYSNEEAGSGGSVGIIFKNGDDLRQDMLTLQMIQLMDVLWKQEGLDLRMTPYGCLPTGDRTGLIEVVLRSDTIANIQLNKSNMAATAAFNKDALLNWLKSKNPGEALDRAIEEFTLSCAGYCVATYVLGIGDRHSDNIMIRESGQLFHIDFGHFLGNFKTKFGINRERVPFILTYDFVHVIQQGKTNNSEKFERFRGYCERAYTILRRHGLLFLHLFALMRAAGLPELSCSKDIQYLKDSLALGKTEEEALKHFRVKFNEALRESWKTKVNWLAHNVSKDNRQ
Chain of PI3Kδ (P27986 whole entry partner): as the sequence (P27986 whole entry partner) above
Method: as §1, §2, §3, §4

[2] = Test (a), approximate value, read-out: IC50 versus PI3Kβ
[3] = Test (a), human recombinant enzyme, ATP 8 μM, PIP2 80 μM, Table A, read-out: PI3Kβ inhibition, IC50
[4] = approximate value, read-out: IC50 versus PI3Kδ
[5] = human recombinant enzyme, Table A, read-out: PI3Kδ inhibition, IC50

Row | Structure (SMILES) | IC50 [1] | IC50 (PI3Kβ; [2]) | IC50 (PI3Kβ; [3]) | IC50 (PI3Kδ; [4]) | IC50 (PI3Kδ; [5]) | IC50 (PI3Kβ; read-out: PI3Kβ inhibition, IC50) | IC50 (PI3Kβ; IC50 versus PI3Kβ)
1 | CN1CCN(C(=O)c2cc([C@H]3CCCN3c3cccc(F)c3)c3oc(N4CCOCC4)cc(=O)c3c2)CC1 [Example 1.10, 8-[(2R)-(1-(3-fluorophenyl)pyrrolidin-2-yl)]-6-(4-methylpiperazine-1-carbonyl)-2-morpholino-4H-chromen-4-one] | ~4 nM | ~8 nM | 8 nM | ~21 nM | 21 nM | – | –
2 | O=C(c1cc(C2CCCN2c2cc(F)cc(F)c2)c2oc(N3CCOCC3)cc(=O)c2c1)N1CCC(O)CC1 (stereo not shown) [Example 1.02, 8-(1-(3,5-difluorophenyl)pyrrolidin-2-yl)-6-(4-hydroxypiperidine-1-carbonyl)-2-morpholino-4H-chromen-4-one] | – | – | – | – | 14 nM | – | –
3 | CN(CCO)C(=O)c1cc(C2CCCN2c2cc(F)cc(F)c2)c2oc(N3CCOCC3)cc(=O)c2c1 (stereo not shown) [Example 1.01, 8-(1-(3,5-difluorophenyl)pyrrolidin-2-yl)-N-(2-hydroxyethyl)-N-methyl-2-morpholino-4-oxo-4H-chromene-6-carboxamide] | – | – | – | – | 16 nM | – | –
4 | CN(C)C(=O)c1cc([C@H]2CCCN2c2cccc(F)c2)c2oc(N3CCOCC3)cc(=O)c2c1 [Example 1.06, 8-[(2R)-(1-(3-fluorophenyl)pyrrolidin-2-yl)]-N,N-dimethyl-2-morpholino-4-oxo-4H-chromene-6-carboxamide] | ~1 nM | ~7 nM | 7 nM | ~7 nM | 7 nM | – | –
5 | O=C(c1cc(C2CCCN2c2cc(F)cc(F)c2)c2oc(N3CCOCC3)cc(=O)c2c1)N1CCOCC1 (racemic) [Example 1.03, 8-(1-(3,5-difluorophenyl)pyrrolidin-2-yl)-6-(morpholine-4-carbonyl)-2-morpholino-4H-chromen-4-one] | ~2 nM | ~12 nM | 12 nM | ~22 nM | 22 nM | – | –
6 | CN(C)C(=O)c1cc(C2CCCN2c2cc(F)cc(F)c2)c2oc(N3CCOCC3)cc(=O)c2c1 (stereo not shown) [Example 1.00, 8-[1-(3,5-difluorophenyl)pyrrolidin-2-yl]-N,N-dimethyl-2-morpholino-4-oxo-4H-chromene-6-carboxamide] | – | – | – | – | 15 nM | – | –
7 | O=C(c1cc([C@H]2CCCN2c2cccc(F)c2)c2oc(N3CCOCC3)cc(=O)c2c1)N1CCC1 [Example 1.08, 6-(azetidine-1-carbonyl)-8-[(2R)-(1-(3-fluorophenyl)pyrrolidin-2-yl)]-2-morpholino-4H-chromen-4-one] | ~2 nM | ~6 nM | 6 nM | ~6 nM | 6 nM | – | –
8 | CN(C)C(=O)c1cc(C2CCCN2c2cccc(F)c2)c2oc(N3CCOCC3)cc(=O)c2c1 (stereo not shown) [Example 2.00, 8-(1-(3-fluorophenyl)pyrrolidin-2-yl)-N,N-dimethyl-2-morpholino-4-oxo-4H-chromene-6-carboxamide] | ~2 nM | ~9 nM | – | ~12 nM | 12 nM | 9 nM | –
9 | O=C(c1cc([C@H]2CCCN2c2cccc(F)c2)c2oc(N3CCOCC3)cc(=O)c2c1)N1CCOCC1 [Example 1.07, 8-[(2R)-(1-(3-fluorophenyl)pyrrolidin-2-yl)]-6-(morpholine-4-carbonyl)-2-morpholino-4H-chromen-4-one] | ~2 nM | – | 6 nM | ~5 nM | 5 nM | – | ~6 nM
10 | O=C(c1cc(C2CCCN2c2cc(F)cc(F)c2)c2oc(N3CCOCC3)cc(=O)c2c1)N1CC[S+]([O-])CC1 (stereo not shown) [Example 1.04, 8-[1-(3,5-difluorophenyl)pyrrolidin-2-yl]-2-morpholino-6-[(1-oxidothiomorpholin-4-yl)carbonyl]-4H-chromen-4-one] | ~5 nM | ~11 nM | 11 nM | ~24 nM | 24 nM | – | –
11 | COc1cccc(N2CCC[C@@H]2c2cc(C(=O)N3CCOCC3)cc3c(=O)cc(N4CCOCC4)oc23)c1 [Example 1.11, 8-[(2R)-(1-(3-methoxyphenyl)pyrrolidin-2-yl)]-6-(morpholine-4-carbonyl)-2-morpholino-4H-chromen-4-one] | ~8 nM | ~9 nM | 9 nM | ~15 nM | 15 nM | – | –
12 | CN1CCN(C(=O)c2cc([C@H]3CCCN3c3cc(F)cc(F)c3)c3oc(N4CCOCC4)cc(=O)c3c2)CC1 [Example 1.09, 8-[(2R)-(1-(3,5-difluorophenyl)pyrrolidin-2-yl)]-6-(4-methylpiperazine-1-carbonyl)-2-morpholino-4H-chromen-4-one] | – | – | – | – | 14 nM | – | –
13 | O=C(c1cc(C2CCCN2c2ccc(F)cc2)c2oc(N3CCOCC3)cc(=O)c2c1)N1CCOCC1 (racemic) [Example 1.12, 8-(1-(4-fluorophenyl)pyrrolidin-2-yl)-6-(morpholine-4-carbonyl)-2-morpholino-4H-chromen-4-one] | – | – | 15 nM | – | 32 nM | – | –

More lines, main results first:

Row | IC50 [1] | IC50 (PI3Kβ; [2]) | IC50 (PI3Kβ; [3]) | IC50 (PI3Kδ; [4]) | IC50 (PI3Kδ; [5]) | Structure (SMILES) | IC50 (PI3Kβ; read-out: PI3Kβ inhibition, IC50) | IC50 (PI3Kβ; IC50 versus PI3Kβ)
14 | – | – | 13 nM | – | 16 nM | CN(C)C(=O)c1cc(C2CCCN2c2cc(F)cc(C#N)c2)c2oc(N3CCOCC3)cc(=O)c2c1 (stereo not shown) [Example 2.02, 8-(1-(3-cyano-5-fluorophenyl)pyrrolidin-2-yl)-N,N-dimethyl-2-morpholino-4-oxo-4H-chromene-6-carboxamide] | – | –
15 | – | – | 10 nM | – | 15 nM | COc1cccc(N2CCCC2c2cc(C(=O)N(C)C)cc3c(=O)cc(N4CCOCC4)oc23)c1 (stereo not shown) [Example 2.01, 8-(1-(3-methoxyphenyl)pyrrolidin-2-yl)-N,N-dimethyl-2-morpholino-4-oxo-4H-chromene-6-carboxamide] | – | –
16 | ~3 nM | ~14 nM | 14 nM | ~10 nM | 10 nM | C[C@@H]1CN(c2cc(=O)c3cc(C(=O)N4CCOCC4)cc(C4CCCN4c4cccc(F)c4)c3o2)CCO1 (stereo partly drawn) [Example 3.02, 8-(1-(3-fluorophenyl)pyrrolidin-2-yl)-2-((R)-2-methylmorpholino)-6-(morpholine-4-carbonyl)-4H-chromen-4-one] | – | –
17 | ~1 nM | ~10 nM | 10 nM | ~7 nM | 7 nM | C[C@@H]1CN(c2cc(=O)c3cc(C(=O)N(C)C)cc(C4CCCN4c4cccc(F)c4)c3o2)CCO1 (stereo partly drawn) [Example 3.03, 8-(1-(3-fluorophenyl)pyrrolidin-2-yl)-N,N-dimethyl-2-((R)-2-methylmorpholino)-4-oxo-4H-chromene-6-carboxamide] | – | –
18 | ~3 nM | ~11 nM | 11 nM | ~18 nM | 18 nM | C[C@@H]1CN(c2cc(=O)c3cc(C(=O)N4CCOCC4)cc(C4CCCN4c4cc(F)cc(F)c4)c3o2)CCO1 (stereo partly drawn) [Example 3.00, 8-(1-(3,5-difluorophenyl)pyrrolidin-2-yl)-2-((R)-2-methylmorpholino)-6-(morpholine-4-carbonyl)-4H-chromen-4-one] | – | –
19 | – | – | 17 nM | – | 19 nM | CN(C)C(=O)c1cc(C2CCCN2c2ccc(F)cc2)c2oc(N3CCOCC3)cc(=O)c2c1 (racemic) [Example 2.04, 8-(1-(4-fluorophenyl)pyrrolidin-2-yl)-N,N-dimethyl-2-morpholino-4-oxo-4H-chromene-6-carboxamide] | – | –
